In PMC3322948, “Phase I first-in-human study of TAK-285, a novel investigational dual HER2/EGFR inhibitor, in cancer patients” (British Journal of Cancer, 2012):

Test: Phase I safety, DLT and MTD in patients with solid tumours
Format: in vivo
Description: This was a phase I, multicentre, open-label study, conducted to investigate the safety, pharmacokinetics (PKs), and determine the maximum tolerated dose (MTD) of oral TAK-285 in patients with solid tumours. Two cohorts were planned for this study: a dose escalation cohort and a repeated administration cohort. In the dose escalation cohort, patients received a single oral dose of TAK-285, followed by 2–6 days of observation without treatment, followed by treatment with the same dose if the safety was confirmed. In this cohort, patients received TAK-285 […]. One cycle was 4 weeks, consisting of 3 weeks of treatment and 1 week of observation without treatment. TAK-285 was given once daily (q.d.) or twice daily (b.i.d.). The dose was escalated from a starting dose of 50 mg until the MTD was determined. In the repeated administration cohort, patients were treated with oral TAK-285 at the MTD for at least 4 weeks in order to confirm safety.
In the dose escalation cohort, the dose of TAK-285 was decided by consideration of adverse events (AEs) observed during the first cycle. […] Dose escalation was continued until the MTD was determined. The dose of TAK-285 was increased by 100 or 40% in accordance with accelerated titration designs reported previously ([Simon et al, 1997]). A DLT was defined as any TAK-285-related grade 4 haematological toxicity, grade 3 or worse non-haematological toxicity, grade 3 or worse neutropenia (<1000 mm^–3) with fever of 38 °C or higher, or toxicity resulting in cessation of treatment for >21 consecutive days (including the stipulated period of observation without treatment).
Safety evaluations included vital signs (oxygen saturation, body temperature, breathing rate, blood pressure and pulse), clinical laboratory tests, lung function tests (pulmonary surfactant protein-A, pulmonary surfactant protein-D, Krebs von den Lunge-6 and arterial blood gas analysis), chest X-ray, and 12-lead electrocardiogram (ECG). These tests were performed weekly with the exception of chest X-rays (every 4 weeks), arterial blood gas analysis (at screening) and ECG (4 time points each at screening, on day 1 and day 8, after DLT assessment, one time point every 4 weeks). All ECG charts were submitted to the ECG evaluation committee to assess cardiac function. Adverse events were graded based on the National Cancer Institute Common Toxicity Criteria for Adverse Events, version 3.0 (Bethesda, MD, USA).

For CC(C)(O)CC(=O)NCCn1ccc2ncnc(Nc3ccc(Oc4cccc(C(F)(F)F)c4)c(Cl)c3)c21 [TAK-285], the “patients who died during the study” value (cause considered unrelated to TAK-285) was “Two”, the “Alanine aminotransferase increased ⩾Grade 3, number of patients” value (human, in vivo) was 4 and the “Alanine aminotransferase increased, incidence” value (human, in vivo) was 46.2%. The “Alanine aminotransferase increased, number of patients” value (human, in vivo) was 12, the “Any adverse events ⩾Grade 3, number of patients” value (human, in vivo) was 12 and the “Any adverse events, incidence” value (human, in vivo) was 100.0%. The “Any adverse events, number of patients” value (human, in vivo) was 26, the “Aspartate aminotransferase increased ⩾Grade 3, number of patients” value (human, in vivo) was 3 and the “Aspartate aminotransferase increased, incidence” value (human, in vivo) was 46.2%. The “Aspartate aminotransferase increased, number of patients” value (human, in vivo) was 12, the “Blood alkaline phosphatase increased ⩾Grade 3, number of patients” value (human, in vivo) was 0 and the “Blood alkaline phosphatase increased, incidence” value (human, in vivo) was 19.2%. The “Blood alkaline phosphatase increased, number of patients” value (human, in vivo) was 5, the “Blood bilirubin increased ⩾Grade 3, number of patients” value (human, in vivo) was 1 and the “Blood bilirubin increased, incidence” value (human, in vivo) was 34.6%. The “Blood bilirubin increased, number of patients” value (human, in vivo) was 9, the “Blood creatinine increased ⩾Grade 3, number of patients” value (human, in vivo) was 0 and the “Blood creatinine increased, incidence” value (human, in vivo) was 11.5%. For the same compound, the “Blood creatinine increased, number of patients” value (human, in vivo) was 3, the “Blood lactate dehydrogenase increased ⩾Grade 3, number of patients” value (human, in vivo) was 1 and the “Blood lactate dehydrogenase increased, incidence” value (human, in vivo) was 19.2%. For the same compound, the “Blood lactate dehydrogenase increased, number of patients” value (human, in vivo) was 5, the “Cancer pain ⩾Grade 3, number of patients” value (human, in vivo) was 1 and the “Cancer pain, incidence” value (human, in vivo) was 19.2%. For the same compound, the “Cancer pain, number of patients” value (human, in vivo) was 5, the “Constipation ⩾Grade 3, number of patients” value (human, in vivo) was 0 and the “Constipation, incidence” value (human, in vivo) was 26.9%. The “Constipation, number of patients” value (human, in vivo) was 7, the “Decreased appetite ⩾Grade 3, number of patients” value (human, in vivo) was 2 and the “Decreased appetite, incidence” value (human, in vivo) was 23.1%. For the same compound, the “Decreased appetite, number of patients” value (human, in vivo) was 6, the “Diarrhoea ⩾Grade 3, number of patients” value (human, in vivo) was 0 and the “Diarrhoea, incidence” value (human, in vivo) was 34.6%. For the same compound, the “Diarrhoea, number of patients” value (human, in vivo) was 9, the “Dry skin ⩾Grade 3, number of patients” value (human, in vivo) was 0 and the “Dry skin, incidence” value (human, in vivo) was 15.4%. For the same compound, the “Dry skin, number of patients” value (human, in vivo) was 4, the “Gamma-glutamyltransferase increased ⩾Grade 3, number of patients” value (human, in vivo) was 4 and the “Gamma-glutamyltransferase increased, incidence” value (human, in vivo) was 26.9%. For the same compound, the “Gamma-glutamyltransferase increased, number of patients” value (human, in vivo) was 7, the “Haemoglobin decreased ⩾Grade 3, number of patients” value (human, in vivo) was 1 and the “Haemoglobin decreased, incidence” value (human, in vivo) was 11.5%. For the same compound, the “Haemoglobin decreased, number of patients” value (human, in vivo) was 3, the “Nausea ⩾Grade 3, number of patients” value (human, in vivo) was 0 and the “Nausea, incidence” value (human, in vivo) was 19.2%. For the same compound, the “Nausea, number of patients” value (human, in vivo) was 5, the “Pyrexia ⩾Grade 3, number of patients” value (human, in vivo) was 0 and the “Pyrexia, incidence” value (human, in vivo) was 23.1%. For the same compound, the “Pyrexia, number of patients” value (human, in vivo) was 6, the “Rash ⩾Grade 3, number of patients” value (human, in vivo) was 0 and the “Rash, incidence” value (human, in vivo) was 42.3%. The “Rash, number of patients” value (human, in vivo) was 11, the “Stomatitis ⩾Grade 3, number of patients” value (human, in vivo) was 0 and the “Stomatitis, incidence” value (human, in vivo) was 11.5%. For the same compound, the “Stomatitis, number of patients” value (human, in vivo) was 3, the “Vomiting ⩾Grade 3, number of patients” value (human, in vivo) was 0 and the “Vomiting, incidence” value (human, in vivo) was 15.4%. For the same compound, the “Vomiting, number of patients” value (human, in vivo) was 4, the “grade 4 AEs related to TAK-285” value (human, in vivo) was “no grade 4 AEs” and the grade of diarrhoea (human, in vivo) was no more than 2 grade. The grade of rash (human, in vivo) was no more than 2 grade, the “lung function tests, chest X-rays, vital signs or ECGs” value (human, in vivo) was “No clinically significant changes” and the “patients with AEs considered related to TAK-285, number” value (human, in vivo) was 22. For the same compound, the “patients with AEs considered related to TAK-285, percent” value (human, in vivo) was 84.6%, the “patients with dose-limiting toxicities” value (human, in vivo) was “two” and the pneumonitis (human, in vivo) was “not reported”. The “related AEs grade 2, number of patients” value (human, in vivo) was 11, the “related AEs grade 2, percent of patients” value (human, in vivo) was 42.3% and the “related AEs grade 2 or lower, number of patients” value (human, in vivo) was 17. For the same compound, the “related AEs grade 2 or lower, percent of patients” value (human, in vivo) was 65.4%, the “related AEs grade 3, number of patients” value (human, in vivo) was 5 and the “related AEs grade 3, percent of patients” value (human, in vivo) was 19.2%. For the same compound, the “maximum tolerated dose (MTD)” value (oral, patients with solid tumours) was 300 mg b.i.d.
